Results taken from patent US11339171B2, “MDM2 inhibitors” (Gan & Lee Pharmaceuticals, priority 2017, dated 2022).

How the values were obtained:
[1] = system: human osteosarcoma cell line SJSA-1; test: Inhibition of proliferation of human osteosarcoma cell line SJSA-1 (DAPI staining, In Cell Analyzer); details: Homo sapiens, SJSA-1, 72 h, read-out: IC50 (nM), inhibitory activity on proliferation of human osteosarcoma cell line SJSA-1, SJSA-1, incubated 72 h
[2] = molecular target: T1, MDM2 (Homo sapiens, UniProt Q00987); test: Inhibition test of MDM2-P53 (GST-MDM2, Biotin-P53, Anti-GST-Tb, SA-XL665); type: binding
T1 construct: made in house
T1 sequence (Q00987 whole entry): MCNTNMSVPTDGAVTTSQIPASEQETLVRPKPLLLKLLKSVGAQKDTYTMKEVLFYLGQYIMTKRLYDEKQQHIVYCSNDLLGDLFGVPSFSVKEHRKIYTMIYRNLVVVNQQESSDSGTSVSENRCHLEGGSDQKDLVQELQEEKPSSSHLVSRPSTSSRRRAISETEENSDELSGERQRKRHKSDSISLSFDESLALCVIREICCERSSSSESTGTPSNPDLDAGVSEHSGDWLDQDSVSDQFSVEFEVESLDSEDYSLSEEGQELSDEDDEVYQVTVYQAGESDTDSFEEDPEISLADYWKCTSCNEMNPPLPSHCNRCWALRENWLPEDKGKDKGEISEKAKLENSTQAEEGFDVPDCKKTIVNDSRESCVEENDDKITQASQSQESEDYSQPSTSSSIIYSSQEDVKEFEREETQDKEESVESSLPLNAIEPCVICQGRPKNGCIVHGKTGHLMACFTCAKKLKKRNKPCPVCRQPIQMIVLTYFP
Outline: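 Compounds, serially diluted 5-fold (twelve concentrations), were shaken for 90 min at 25° C with a mix of GST-MDM2 (4 nM final), Biotin-P53, anti-GST-Tb and SA-XL665. Buffer: 1×PBS, 0.1% BSA, 5 mM DTT, 1 mM AEBSF; signal read on a microplate reader.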

SMILES | IC50 [1] | IC50 [2]
COc1ncc(-c2nc3c(n2C(C)C)[C@@]2(C(=O)Nc4cc(Cl)ccc42)N(c2cc(Cl)ccc2OC)C3=O)c(OC)n1 [Example S-17, (S)-6-chloro-5′-(5-chloro-2-methoxyphenyl)-2′-(2,4-dimethoxypyrimidin-5-yl)-3′-isopropyl-3′H-spiro[dihydroindole-3,4′-pyrrolo[3,4-d]imidazole]-2,6′(5′H)-dione] | 201 nM | 3.75 nM
COc1ccncc1-c1nc2c(n1C(C)C)[C@@]1(C(=O)Nc3cc(Cl)ccc31)N(c1cc(Cl)ccc1C)C2=O [Example S-18, (S)-6-chloro-5′-(5-chloro-2-methylphenyl)-3′-isopropyl-2′-(4-methoxypyridin-3-yl)-3′H-spiro[dihydroindole-3,4′-pyrrolo[3,4-d]imidazole]-2,6′(5′H)-dione] | 13.9 nM | 1.43 nM
COc1ccc(C(C)C)c(-c2nc3c(n2C(C)C)[C@@]2(C(=O)Nc4cc(Cl)ccc42)N(c2cc(Cl)ccc2C)C3=O)c1 [Example S-19, (S)-6-chloro-5′-(5-chloro-2-methylphenyl)-3′-isopropyl-2′-(2-isopropyl-5-methoxyphenyl)-3′H-spiro[dihydroindole-3,4′-pyrrolo[3,4-d]imidazole]-2,6′(5′H)-dione] | 352 nM | 34.6 nM
COc1ncc(-c2nc3c(n2C(C)C)[C@@]2(C(=O)Nc4cc(Cl)ccc42)N(c2ccc(C)c(Cl)c2)C3=O)c(OC)n1 [Example S-20, (S)-6-chloro-5′-(3-chloro-4-methylphenyl)-2′-(2,4-dimethoxypyrimidin-5-yl)-3′-isopropyl-3′H-spiro[dihydroindole-3,4′-pyrrolo[3,4-d]imidazole]-2,6′(5′H)-dione] | 48.1 nM | 4.39 nM
CNC(=O)c1ccc(OC)c(-c2nc3c(n2C(C)C)[C@@]2(C(=O)Nc4cc(Cl)ccc42)N(c2cc(Cl)ccc2C)C3=O)c1 [Example S-21, (S)-3-(6-chloro-5′-(5-chloro-2-methylphenyl)-3′-isopropyl-2,6′-dioxo-5′,6′-dihydro-3′H-spiro[dihydroindole-3,4′-pyrrolo[3,4-d]imidazole]-2′-yl)-4-methoxy-N-methylbenzamide] | 62.2 nM | 1.34 nM
COc1ccc(C(=O)N(C)C)cc1-c1nc2c(n1C(C)C)[C@@]1(C(=O)Nc3cc(Cl)ccc31)N(c1cc(Cl)ccc1C)C2=O [Example S-22, (S)-3-(6-chloro-5′-(5-chloro-2-methylphenyl)-3′-isopropyl-2,6′-dioxo-5′,6′-dihydro-3′H-spiro[dihydroindole-3,4′-pyrrolo[3,4-d]imidazole]-2′-yl)-4-methoxy-N,N-dimethylbenzamide] | 7.46 nM | 1.1 nM
COc1cc(C)ccc1-c1nc2c(n1C(C)C)[C@@]1(C(=O)Nc3cc(Cl)ccc31)N(c1cc(Cl)ccc1C)C2=O [Example S-24, (S)-6-chloro-5′-(5-chloro-2-methylphenyl)-3′-isopropyl-2′-(2-methoxy-4-methylphenyl)-3′H-spiro[dihydroindole-3,4′-pyrrolo[3,4-d]imidazole]-2,6′(5′H)-dione] | 4.17 nM | 4.4 nM
CNc1ccc(-c2nc3c(n2C(C)C)[C@@]2(C(=O)Nc4cc(Cl)ccc42)N(c2cc(Cl)ccc2C)C3=O)c(OC)c1 [Example S-25, (S)-6-chloro-5′-(5-chloro-2-methylphenyl)-3′-isopropyl-2′-(2-methoxy-4-(methylamine)phenyl)-3′H-spiro[dihydroindole-3,4′-pyrrolo[3,4-d]imidazole]-2,6′(5′H)-dione] | 8.83 nM | 2.52 nM
CCn1c(-c2cnc(OC)nc2OC)nc2c1[C@@]1(C(=O)Nc3cc(Cl)ccc31)N(c1cc(Cl)ccc1C)C2=O [Example S-26, (S)-6-chloro-5′-(5-chloro-2-methylphenyl)-2′-(2,4-dimethoxypyrimidin-5-yl)-3′-ethyl-3′H-spiro[dihydroindole-3,4′-pyrrolo[3,4-d]imidazole]-2,6′(5′H)-dione] | 22.2 nM | 2.37 nM
COc1ncncc1-c1nc2c(n1C(C)C)[C@@]1(C(=O)Nc3cc(Cl)ccc31)N(c1cc(Cl)ccc1C)C2=O [Example S-27, (S)-6-chloro-5′-(5-chloro-2-methylphenyl)-3′-isopropyl-2′-(4-methoxypyrimidin-5-yl)-3′H-spiro[dihydroindole-3,4′-pyrrolo[3,4-d]imidazole]-2,6′(5′H)-dione] | 119 nM | 3.45 nM
COc1ncc(-c2nc3c(n2C2CC2)[C@@]2(C(=O)Nc4cc(Cl)ccc42)N(c2cc(Cl)ccc2C)C3=O)c(OC)n1 [Example S-28, (S)-6-chloro-5′-(5-chloro-2-methylphenyl)-3′-cyclopropane-2′-(2,4-dimethoxypyrimidin-5-yl)-3′H-spiro[dihydroindole-3,4′-pyrrolo[3,4-d]imidazole]-2,6′(5′H)-dione] | 1290 nM | 54.3 nM
COc1ccc(C(N)=O)cc1-c1nc2c(n1C(C)C)[C@@]1(C(=O)Nc3cc(Cl)ccc31)N(c1cc(Cl)ccc1C)C2=O [Example S-29, (S)-3-(6-chloro-5′-(5-chloro-2-methylphenyl)-3′-isopropyl-2,6′-dioxo-5′,6′-dihydro-3′H-spiro[dihydroindole-3,4′-pyrrolo[3,4-d]imidazole]-2′-yl)-4-methoxybenzamide] | 196 nM | 1.01 nM
Cc1ccc(Cl)cc1N1C(=O)c2nc(-c3ccccc3OC(F)F)n(C(C)C)c2[C@@]12C(=O)Nc1cc(Cl)ccc12 [Example S-30, (S)-6-chloro-5′-(5-chloro-2-methylphenyl)-2′-(2-(difluoromethoxy)phenyl)-3′-isopropyl-3′H-spiro[dihydroindole-3,4′-pyrrolo[3,4-d]imidazole]-2,6′(5′H)-dione] | 58.1 nM | 3.31 nM
Cc1ccc(Cl)cc1N1C(=O)c2nc(-c3ccccc3OC(F)(F)F)n(C(C)C)c2[C@@]12C(=O)Nc1cc(Cl)ccc12 [Example S-31, (S)-6-chloro-5′-(5-chloro-2-methylphenyl)-3′-isopropyl-2′-(2-(trifluoromethoxy)phenyl)-3′H-spiro[dihydroindole-3,4′-pyrrolo[3,4-d]imidazole]-2,6′(5′H)-dione] | 1580 nM | 60.1 nM
CCc1ccc(-c2nc3c(n2C(C)C)[C@@]2(C(=O)Nc4cc(Cl)ccc42)N(c2cc(Cl)ccc2C)C3=O)c(OC)c1 [Example S-33, (S)-6-chloro-5′-(5-chloro-2-methylphenyl)-2′-(4-ethyl-2-methoxyphenyl)-3′-isopropyl-3′H-spiro[dihydroindole-3,4′-pyrrolo[3,4-d]imidazole]-2,6′(5′H)-dione] | 9.7 nM | 2.47 nM
Cc1ccc(Cl)cc1N1C(=O)c2nc(-c3ccccc3OC(C)C)n(C(C)C)c2[C@@]12C(=O)Nc1cc(Cl)ccc12 [Example S-34, (S)-6-chloro-5′-(5-chloro-2-methylphenyl)-2′-(2-isopropoxyphenyl)-3′-isopropyl-3′H-spiro[dihydroindole-3,4′-pyrrolo[3,4-d]imidazole]-2,6′(5′H)-dione] | 619 nM | 139 nM
CCOc1ccccc1-c1nc2c(n1C(C)C)[C@@]1(C(=O)Nc3cc(Cl)ccc31)N(c1cc(Cl)ccc1C)C2=O [Example S-35, (S)-6-chloro-5′-(5-chloro-2-methylphenyl)-2′-(2-ethoxyphenyl)-3′-isopropyl-3′H-spiro[dihydroindole-3,4′-pyrrolo[3,4-d]imidazole]-2,6′(5′H)-dione] | 258 nM | 23.4 nM
CCc1ccc(OC)c(-c2nc3c(n2C(C)C)[C@@]2(C(=O)Nc4cc(Cl)ccc42)N(c2cc(Cl)ccc2C)C3=O)c1 [Example S-37, (S)-6-chloro-5′-(5-chloro-2-methylphenyl)-2′-(5-ethyl-2-methoxyphenyl)-3′-isopropyl-3′H-spiro[dihydroindole-3,4′-pyrrolo[3,4-d]imidazole]-2,6′(5′H)-dione] | 14.2 nM | 22 nM
CCc1ccc(OC)c(-c2nc3c(n2C(C)C)[C@@]2(C(=O)Nc4cc(Cl)ccc42)N(c2cccc(Cl)c2)C3=O)c1 [Example S-38, (S)-6-chloro-5′-(3-chlorophenyl)-2′-(5-ethyl-2-methoxyphenyl)-3′-isopropyl-3′H-spiro[dihydroindole-3,4′-pyrrolo[3,4-d]imidazole]-2,6′(5′H)-dione] | 14.7 nM | 12 nM
COc1ccc(-c2nc3c(n2C(C)C)[C@@]2(C(=O)Nc4cc(Cl)ccc42)N(c2cc(Cl)cn(C)c2=O)C3=O)c(OC)c1 [Example S-39, (S)-6-chloro-5′-(5-chloro-1-methyl-2-oxo-1,2-dihydropyridin-3-yl)-2′-(2,4-dimethoxyphenyl)-3′-isopropyl-3′H-spiro[dihydroindole-3,4′-pyrrolo[3,4-d]imidazole]-2,6′(5′H)-dione] | 1180 nM | 3.93 nM
COc1cc(-c2nc3c(n2C(C)C)[C@@]2(C(=O)Nc4cc(Cl)ccc42)N(c2cc(Cl)ccc2C)C3=O)c(OC)cn1 [Example S-40, (S)-6-chloro-5′-(5-chloro-2-methylphenyl)-2′-(2,5-dimethoxypyridin-4-yl)-3′-isopropyl-3′H-spiro[dihydroindole-3,4′-pyrrolo[3,4-d]imidazole]-2,6′(5′H)-dione] | 14.1 nM | 3.85 nM
COc1ncc(-c2nc3c(n2C2CCC2)[C@@]2(C(=O)Nc4cc(Cl)ccc42)N(c2cc(Cl)ccc2C)C3=O)c(OC)n1 [Example S-41, (S)-6-chloro-5′-(5-chloro-2-methylphenyl)-3′-cyclobutyl-2′-(2,4-dimethoxypyrimidin-5-yl)-3′H-spiro[dihydroindole-3,4′-pyrrolo[3,4-d]imidazole]-2,6′(5′H)-dione] | 1210 nM | 149 nM
